Results reported in PubChem BioAssay AID248 (DTP/NCI, 2004).
Several values for one entry are separate records, joined by “and”; a condition that tells them apart may be missing. Equal values may be shown once. Toxic doses and inconclusive results are not listed. Cut-off read from the data, not from the text of the source: active = T/C of 150% or more; inactive = T/C below 125%.

System: L1210 leukemia ip in BDF1 mice, survival T/C
Test: NCI In Vivo Anticancer Drug Screen. Data for tumor model L1210 Leukemia (intraperitoneal) in B6D2F1 (BDF1) mice
Settings: endpoint: mean survival time, higher = longer survival
Method in brief: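 Antitumor effect is assessed in tumor-bearing animals. Survival in the compound arm is compared with a vehicle-dosed control arm and expressed as their quotient.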

[1] = dose: 125.0 mg/kg/injection, schedule: Q01DX Z (ip), vehicle: carboxymethylcellulose (CMC)
[2] = dose: 50.0 mg/kg/injection, schedule: Q01DX009 (ip), vehicle: saline with Tween-80
[3] = dose: 100.0 mg/kg/injection, schedule: Q01DX009 (ip), vehicle: saline with Tween-80
[4] = dose: 100.0 mg/kg/injection, schedule: Q01DX001 (ip), vehicle: saline
[5] = dose: 200.0 mg/kg/injection, schedule: Q01DX001 (ip), vehicle: saline
[6] = dose: 400.0 mg/kg/injection, schedule: Q01DX001 (ip), vehicle: saline
[7] = dose: 100.0 mg/kg/injection, schedule: Q04DX003 (ip), vehicle: saline with Tween-80
[8] = dose: 100.0 mg/kg/injection, schedule: Q04DX003 (ip), vehicle: saline
[9] = dose: 200.0 mg/kg/injection, schedule: Q04DX003 (ip), vehicle: saline
[10] = dose: 400.0 mg/kg/injection, schedule: Q04DX003 (ip), vehicle: saline
[11] = dose: 50.0 mg/kg/injection, schedule: Q01DX009 (ip), vehicle: saline
[12] = dose: 100.0 mg/kg/injection, schedule: Q01DX009 (ip), vehicle: saline
[13] = dose: 50.0 mg/kg/injection, schedule: Q04DX003 (ip), vehicle: saline

Measured: T/C

COc1cc(-c2ccc(NC(=O)Nc3ccc(C4=NCCN4)cc3)c(OC)c2)ccc1NC(=O)Nc1ccc(C2=NCCN2)cc1
inactive: dose: 15.0 mg/kg/injection, schedule: Q01DX Z (ip), vehicle: carboxymethylcellulose (CMC) 104 % of control | dose: 31.0 mg/kg/injection, schedule: Q01DX Z (ip), vehicle: carboxymethylcellulose (CMC) 98 % of control | dose: 62.5 mg/kg/injection, schedule: Q01DX Z (ip), vehicle: carboxymethylcellulose (CMC) 117 % of control | [1] 103 % of control | dose: 250.0 mg/kg/injection, schedule: Q01DX Z (ip), vehicle: water 117 % of control | dose: 500.0 mg/kg/injection, schedule: Q01DX Z (ip), vehicle: water 87 % of control

CC(Br)C(=O)Nc1ccc(C(=O)O)c(O)c1 (stereo unspecified)
inactive: dose: 25.0 mg/kg/injection, schedule: Q01DX009 (ip), vehicle: saline with Tween-80 112 % of control | [2] 98 % of control | [3] 100 % of control and 107 % of control

Cc1cc(=O)[nH]c(N/N=C/c2ccccc2O)n1
inactive: dose: 25.0 mg/kg/injection, schedule: Q01DX009 (ip), vehicle: Klucel (hydroxypropylcellulose) (HPC) 93 % of control | dose: 50.0 mg/kg/injection, schedule: Q01DX009 (ip), vehicle: Klucel (hydroxypropylcellulose) (HPC) 94 % of control | [4] 98 % of control | dose: 100.0 mg/kg/injection, schedule: Q01DX009 (ip), vehicle: Klucel (hydroxypropylcellulose) (HPC) 93 % of control | dose: 100.0 mg/kg/injection, schedule: Q04DX003 (ip), vehicle: Klucel (hydroxypropylcellulose) (HPC) 92 % of control | dose: 125.0 mg/kg/injection, schedule: Q01DX Z (ip), vehicle: saline 97 % of control | [5] 96 % of control | dose: 200.0 mg/kg/injection, schedule: Q01DX009 (ip), vehicle: Klucel (hydroxypropylcellulose) (HPC) 95 % of control and 96 % of control | dose: 200.0 mg/kg/injection, schedule: Q04DX003 (ip), vehicle: Klucel (hydroxypropylcellulose) (HPC) 94 % of control | dose: 250.0 mg/kg/injection, schedule: Q01DX Z (ip), vehicle: saline 91 % of control | [6] 96 % of control | dose: 400.0 mg/kg/injection, schedule: Q04DX003 (ip), vehicle: Klucel (hydroxypropylcellulose) (HPC) 94 % of control | dose: 500.0 mg/kg/injection, schedule: Q01DX Z (ip), vehicle: saline 91 % of control | dose: 1000.0 mg/kg/injection, schedule: Q01DX Z (ip), vehicle: saline 91 % of control

Cc1ccc(NC(=S)Nc2cccc(C(F)(F)F)c2)cc1C
inactive: dose: 87.5 mg/kg/injection, schedule: Q01DX009 (ip), vehicle: Klucel (hydroxypropylcellulose) (HPC) 101 % of control | dose: 175.0 mg/kg/injection, schedule: Q01DX009 (ip), vehicle: Klucel (hydroxypropylcellulose) (HPC) 98 % of control | dose: 350.0 mg/kg/injection, schedule: Q01DX009 (ip), vehicle: Klucel (hydroxypropylcellulose) (HPC) 102 % of control

O=C(C1=CC=CC1=P(c1ccccc1)(c1ccccc1)c1ccccc1)C(Cl)(Cl)Cl
inactive: [7] 96 % of control | dose: 200.0 mg/kg/injection, schedule: Q04DX003 (ip), vehicle: saline with Tween-80 95 % of control | dose: 400.0 mg/kg/injection, schedule: Q04DX003 (ip), vehicle: saline with Tween-80 96 % of control

Cc1nc(N)[nH]c(=O)c1CCCNc1ccc(/C=C/C(=O)CCl)cc1
inactive: dose: 50.0 mg/kg/injection, schedule: Q01DX Z (ip), vehicle: carboxymethylcellulose (CMC) 90 % of control | dose: 100.0 mg/kg/injection, schedule: Q01DX Z (ip), vehicle: carboxymethylcellulose (CMC) 86 % of control | dose: 200.0 mg/kg/injection, schedule: Q01DX Z (ip), vehicle: carboxymethylcellulose (CMC) 90 % of control | dose: 400.0 mg/kg/injection, schedule: Q01DX Z (ip), vehicle: carboxymethylcellulose (CMC) 90 % of control

Cc1cc(C)c(C(C)C)cc1C(C)C
inactive: [8] 100 % of control | [9] 100 % of control | [10] 90 % of control

O=C(Nc1cccc(C(=O)Nc2cccc(C3=NCCN3)c2)c1)Nc1cccc(C(=O)Nc2cccc(C3=NCCN3)c2)c1
inactive: dose: 15.0 mg/kg/injection, schedule: Q01DX Z (ip), vehicle: methylcellulose (MC) 96 % of control | dose: 30.0 mg/kg/injection, schedule: Q01DX Z (ip), vehicle: methylcellulose (MC) 96 % of control | dose: 60.0 mg/kg/injection, schedule: Q01DX Z (ip), vehicle: methylcellulose (MC) 94 % of control | dose: 120.0 mg/kg/injection, schedule: Q01DX Z (ip), vehicle: methylcellulose (MC) 98 % of control | [1] 110 % of control | dose: 250.0 mg/kg/injection, schedule: Q01DX Z (ip), vehicle: carboxymethylcellulose (CMC) 105 % of control | dose: 500.0 mg/kg/injection, schedule: Q01DX Z (ip), vehicle: carboxymethylcellulose (CMC) 96 % of control

NC(CSS(=O)(=O)O)=NCc1ccccn1
inactive: dose: 100.0 mg/kg/injection, schedule: Q04DX002 (ip), vehicle: Klucel (hydroxypropylcellulose) (HPC) 95 % of control | dose: 200.0 mg/kg/injection, schedule: Q04DX002 (ip), vehicle: Klucel (hydroxypropylcellulose) (HPC) 101 % of control | dose: 400.0 mg/kg/injection, schedule: Q04DX002 (ip), vehicle: Klucel (hydroxypropylcellulose) (HPC) 98 % of control

CN(C)C1c2ccccc2-c2ccc(N)cc21 (stereo unspecified)
inactive: dose: 100.0 mg/kg/injection, schedule: Q01DX001 (ip), vehicle: carboxymethylcellulose (CMC) 94 % of control

CCOC(=O)C1=C(C)NC(=O)NN1C(=O)OCC
inactive: [11] 113 % of control

CCCCCSC
inactive: [12] 93 % of control | [8] 102 % of control | dose: 200.0 mg/kg/injection, schedule: Q01DX009 (ip), vehicle: saline 95 % of control | [9] 105 % of control | dose: 400.0 mg/kg/injection, schedule: Q01DX009 (ip), vehicle: saline 88 % of control | [10] 100 % of control

CCOC(=O)C[n+]1ccccc1/C=C/c1ccc(O)cc1
inactive: dose: 9.38 mg/kg/injection, schedule: Q01DX001 (ip), vehicle: other 101 % of control

CCCCSC(=O)C(O)c1ccccc1 (stereo unspecified)
inactive: [4] 105 % of control | [5] 104 % of control | [6] 105 % of control

CCOP(=O)(/C=C/NC1CCCCC1)OCC
inactive: [13] 90 % of control | [4] 109 % of control | [8] 89 % of control | [5] 114 % of control | [9] 101 % of control

O=C(O)/C=C\Cc1cccc(=O)[nH]1
inactive: dose: 50.0 mg/kg/injection, schedule: Q01DX001 (ip), vehicle: Klucel (hydroxypropylcellulose) (HPC) 94 % of control | dose: 100.0 mg/kg/injection, schedule: Q01DX001 (ip), vehicle: Klucel (hydroxypropylcellulose) (HPC) 95 % of control | dose: 200.0 mg/kg/injection, schedule: Q01DX001 (ip), vehicle: Klucel (hydroxypropylcellulose) (HPC) 97 % of control

O=C(O)/C=C/C(=O)Nc1ccc2c(c1)Cc1cc(NC(=O)C(F)(F)F)ccc1-2
inactive: dose: 25.0 mg/kg/injection, schedule: Q01DX009 (ip), vehicle: saline 105 % of control | dose: 25.0 mg/kg/injection, schedule: Q04DX003 (ip), vehicle: saline 102 % of control | [11] 101 % of control | [13] 96 % of control | [4] 90 % of control | [12] 100 % of control | [8] 98 % of control | [5] 90 % of control

C[N+](C)(CC(=O)Nc1ccc(Cl)c(C(F)(F)F)c1)Cc1ccc(Cl)cc1
inactive: [7] 100 % of control

CC(C)=CCNc1nc(=O)[nH]c2nc[nH]c12
inactive: dose: 75.0 mg/kg/injection, schedule: Q01DX001 (ip), vehicle: saline 92 % of control | dose: 150.0 mg/kg/injection, schedule: Q01DX001 (ip), vehicle: saline 88 % of control | dose: 300.0 mg/kg/injection, schedule: Q01DX001 (ip), vehicle: saline 88 % of control

CCOC(=O)c1cc(Cl)cc(Cl)c1N/N=[N+](\C)[O-]
inactive: [2] 117 % of control | [3] 87 % of control | dose: 200.0 mg/kg/injection, schedule: Q01DX009 (ip), vehicle: saline with Tween-80 93 % of control
